We go through one compound from US9107940B2, “Compositions and methods for treating and preventing skeletal muscle deficiencies” (The Regents of the University of Michigan, priority 2007, dated 2015).

SMILES strings stand for the structures.

Data set [1] has as its system mdx lumbrical (LMB) muscles. Kind of data set: Isometric contraction protocol (20 contractions) inducing force deficit in isolated lumbrical muscles in vitro. The arrangement: species or system mouse. The text has this: Specific-pathogen-free male mdx mice (C57BL/10ScSn-mdx stock #001801) 2-3 months of age and wild type (WT) C57BL/10 mice 2-5 months of age were obtained from the Jackson Laboratory (Bar Harbor, Me.). Mice were housed in a specific-pathogen-free barrier facility. All experimental procedures were in accordance with the Guide for the Care and Use of Laboratory Animals [DHHS Publication No. 85-23 (NIH), Revised 1985, Office of Science and Health Reports, Bethesda, Md. 20892].
Mice were anesthetized with an intraperitoneal injection of Avertin (tribromoethanol 400 mg/kg). Supplemental doses of Avertin were administered as required to keep the mouse unresponsive to tactile stimuli. The front paws of the mouse were severed and the LMB muscles dissected free from the second digit. The LMB muscles were selected for their extremely small size that ensured all fibres were accessible to externally applied compounds. Based on physical dimensions, LMB muscle mass was estimated to be approximately 0.7 mg. Dissections were performed in a chilled bathing solution, composition in mM: 137 NaCl, 11.9 NaHCO3, 5.0 KCl, 1.8 CaCl2, 0.5 MgCl2, 0.4 NaH2PO4. The isolated LMB muscle was mounted horizontally in a custom-fabricated chamber with the distal tendon attached to a force transducer (Aurora Scientific, Inc., modified Model 400A) and the proximal tendon attached to a servomotor (Aurora Scientific, Inc., Model 318B) by ties composed of 10-0 monofilament nylon suture. Bath temperature was maintained at 25° C. and the chamber was perfused continuously with Tyrode solution (composition in mM: 121 NaCl, 24 NaHCO3, 5.0 KCl, 1.8 CaCl2, 0.5 MgCl2, 0.4 NaH2PO4) maintained at pH 7.3 by bubbling with a 95%/5% O2/CO2 mixture.
Muscles were stimulated electrically by current passed between two platinum electrodes. […] Optimum length (Lo) of the muscle was determined by adjusting its length until maximum twitch force was attained. […]
Data are presented as a mean value±SE. […] When ANOVA was used and significance detected, the Student-Newman-Keuls post hoc comparison was used to assess pairwise differences.

The subject of a further data set is WT muscles. The following applies: P188 1 mM or streptomycin 200 μM. How it is done:
LMB muscles from WT mice, termed WT muscles, were divided into two groups. One group was exposed to normal Tyrode solution and the other group to a calcium-free Tyrode solution. […] For all treatments, muscles were allowed to incubate in the chamber for 15 minutes prior to commencement of the contraction protocol. […] For calcium-free experiments, CaCl2 was omitted from the Tyrode solution and MgCl2 was increased to 2.3 mM to maintain the concentration of divalent ions.

Take `[H]/N=C(/N)N[C@H]1[C@H](O)[C@@H](O)[C@H](O[C@@H]2O[C@@H](C)[C@](O)(C=O)[C@H]2O[C@@H]2O[C@@H](CO)[C@H](O)[C@@H](O)[C@@H]2NC)[C@@H](N/C(N)=N\[H])[C@@H]1O` [streptomycin]: the “influence on absolute Po” value in data set [1] (mdx LMB muscles, P188 1 mM, streptomycin 200 μM) is “did not influence”. The “force generated at the end of the contraction protocol (post-protocol normalized Po)” value in data set [1] (mdx LMB muscles, P188 1 mM, streptomycin 200 μM in Tyrode, 15 min incubation, untreated mdx 69% of Po) is 84 % of Po. Also, the “contraction-induced force deficit (effect in words)” value in data set [1] (whole mdx skeletal muscle) is given as “equally effective in reducing the contraction-induced force deficit”. For the same compound, the “toxicity to the muscle” value in the data set on WT muscles was “not toxic”.
